Experimental data from US7700602B2, “Amino-5,5-diphenylimidazolone derivatives for the inhibition of β-secretase” (Wyeth LLC, priority 2004, dated 2010).
Like-named read-outs stand apart in the source and are kept apart here.

Assays:
human BACE1 = human BACE1 (Homo sapiens, UniProt P56817); test: Fluorescent kinetic assay, inhibition of BACE1 (WABC-6 peptide substrate); format: biochemical;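 also: fluorescence monitored at 320 nm excitation and 420 nm emission every 40 s over 30 min, with the substrate cleavage rate taken from the linear slope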
human BACE2 = biological target: T1, human BACE2 (Homo sapiens, UniProt Q9Y5Z0); test: Fluorescent Kinetic Assay for Human Recombinant BACE 2 (selectivity BACE1/BACE2); format: biochemical; details: selectivity BACE1 over BACE2; 1.5 nM human BACE2, 25 μM substrate, pH 4.5;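 also: cleavage rate from the linear slope of fluorescence (excitation 320 nm, emission 420 nm) recorded every 40 s over 30 min at room temperature, sodium acetate buffer with 0.05% CHAPS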
T1 sequence (Q9Y5Z0 63-518): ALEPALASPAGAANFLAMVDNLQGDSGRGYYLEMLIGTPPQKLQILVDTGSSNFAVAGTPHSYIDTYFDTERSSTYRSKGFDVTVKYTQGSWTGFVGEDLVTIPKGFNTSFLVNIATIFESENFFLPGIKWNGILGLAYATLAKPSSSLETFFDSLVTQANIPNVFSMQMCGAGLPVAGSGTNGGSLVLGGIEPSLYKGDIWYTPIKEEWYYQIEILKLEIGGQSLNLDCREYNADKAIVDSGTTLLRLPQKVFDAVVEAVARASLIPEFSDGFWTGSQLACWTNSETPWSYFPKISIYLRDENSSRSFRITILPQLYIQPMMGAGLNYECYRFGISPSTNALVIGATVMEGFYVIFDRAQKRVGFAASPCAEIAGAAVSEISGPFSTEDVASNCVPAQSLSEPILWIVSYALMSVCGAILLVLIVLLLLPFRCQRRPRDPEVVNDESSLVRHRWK

[1] = 10 nM enzyme, 25 μM substrate WABC-6, pH 4.5, room temperature, read-out: IC50 (μM) BACE1

human BACE1, sequence (P56817 46-501): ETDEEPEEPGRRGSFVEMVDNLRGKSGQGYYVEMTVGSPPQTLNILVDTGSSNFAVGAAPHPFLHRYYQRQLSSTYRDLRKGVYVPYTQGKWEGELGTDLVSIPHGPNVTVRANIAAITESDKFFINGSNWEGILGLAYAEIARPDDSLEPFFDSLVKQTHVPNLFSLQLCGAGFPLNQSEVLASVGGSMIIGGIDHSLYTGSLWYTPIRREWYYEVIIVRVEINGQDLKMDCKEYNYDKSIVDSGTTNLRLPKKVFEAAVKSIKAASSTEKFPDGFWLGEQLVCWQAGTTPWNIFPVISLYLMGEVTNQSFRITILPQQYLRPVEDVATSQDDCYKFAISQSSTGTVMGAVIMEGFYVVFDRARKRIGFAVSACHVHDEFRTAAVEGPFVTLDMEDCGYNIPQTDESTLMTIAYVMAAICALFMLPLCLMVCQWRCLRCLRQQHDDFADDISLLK

IC50 (human BACE1; [1]) [µM] | BACE1/BACE2 selectivity (human BACE2) | IC50 (human BACE1) [µM] | SMILES
 |  | 0.11 to 1 | COc1ccc([C@@]2(c3cccc(-c4cccnc4F)c3)N=C(N)N(C)C2=O)cc1C [Example 102A, (5R)-2-Amino-5-[3-(2-fluoropyridin-3-yl)phenyl]-5-(4-methoxy-3-methylphenyl]-3-methyl-3,5-dihydro-4H-imidazol-4-one]
> 1 | III (III = <10-fold selectivity) |  | CN1C(=O)[C@](c2ccc(OC(F)F)cc2)(c2cccc(-c3ccc(F)nc3)c2)N=C1N [Example 135A, (5S)-2-Amino-5-[4-(difluoromethoxy)phenyl]-5-[3-(6-fluoropyridin-3-yl)phenyl]-3-methyl-3,5-dihydro-4H-imidazol-4-one]
> 1 | III (III = <10-fold selectivity) |  | COc1ccc([C@@]2(c3ccc(F)c(-c4cnccc4F)c3)N=C(N)N(C)C2=O)cc1 [Example 143A, (5S)-2-Amino-5-[4-fluoro-3-(4-fluoropyridin-3-yl)phenyl]-5-(4-methoxyphenyl)-3-methyl-3,5-dihydro-4H-imidazol-4-one]
0.01 to 0.1 | II (II = 10-100-fold selectivity) |  | CN1C(=O)[C@@](c2ccc(OC(F)F)cc2)(c2cccc(-c3cc(F)cnc3F)c2)N=C1N [Example 137B, (5R)-2-Amino-5-[4-(difluoromethoxy)phenyl]-5-[3-(2,5-difluoropyridin-3-yl)phenyl]-3-methyl-3,5-dihydro-4H-imidazol-4-one]
0.11 to 1 | III (III = <10-fold selectivity) |  | CN1C(=O)[C@](c2ccc(OC(F)F)cc2)(c2ccc(F)c(-c3ccc(F)nc3)c2)N=C1N [Example 134A, (5S)-2-Amino-5-[4-(difluoromethoxy)phenyl]-5-[4-fluoro-3-(6-fluoropyridin-3-yl)phenyl]-3-methyl-3,5-dihydro-4H-imidazol-4-one]
0.01 to 0.1 | II (II = 10-100-fold selectivity) |  | CN1C(=O)[C@@](c2ccc(OC(F)F)cc2)(c2ccc(F)c(-c3cccnc3F)c2)N=C1N [Example 133B, (5R)-2-Amino-5-[4-(difluoromethoxy)phenyl]-5-[4-fluoro-3-(2-fluoropyridin-3-yl)phenyl]-3-methyl-3,5-dihydro-4H-imidazol-4-one]
0.01 to 0.1 | II (II = 10-100-fold selectivity) |  | CCOc1ccc([C@]2(c3cccc(-c4cccnc4F)c3)N=C(N)N(C)C2=O)cc1OCC [Example 103B, (5S)-2-Amino-5-(3,4-diethoxyphenyl)-5-[3-(2-fluoropyridin-3-yl)phenyl]-3-methyl-3,5-dihydro-4H-imidazol-4-one]
0.01 to 0.1 | II (II = 10-100-fold selectivity) |  | COc1ccc([C@]2(c3ccc(F)c(-c4cnccc4F)c3)N=C(N)N(C)C2=O)cc1 [Example 143B, (5R)-2-Amino-5-[4-fluoro-3-(4-fluoropyridin-3-yl)phenyl]-5-(4-methoxyphenyl)-3-methyl-3,5-dihydro-4H-imidazol-4-one]
0.01 to 0.1 | II (II = 10-100-fold selectivity) |  | CN1C(=O)[C@@](c2ccc(OC(F)F)cc2)(c2ccc(F)c(-c3ccc(F)nc3)c2)N=C1N [Example 134B, (5R)-2-Amino-5-[4-(difluoromethoxy)phenyl]-5-[4-fluoro-3-(6-fluoropyridin-3-yl)phenyl]-3-methyl-3,5-dihydro-4H-imidazol-4-one]
 |  | 0.01 to 0.1 | COc1ccc([C@]2(c3cccc(-c4cccnc4F)c3)N=C(N)N(C)C2=O)cc1C [Example 102B, (5S)-2-Amino-5-[3-(2-fluoropyridin-3-yl)phenyl]-5-(4-methoxy-3-methylphenyl]-3-methyl-3,5-dihydro-4H-imidazol-4-one]

The next lines start with the compound.

SMILES | IC50 (human BACE1; [1]) [µM] | BACE1/BACE2 selectivity (human BACE2) | IC50 (human BACE1) [µM]
CN1C(=O)C(c2ccc(OC(F)F)cc2)(c2cccc(-c3cc(F)cnc3F)c2)N=C1N (centres unmarked) [Example 91] | 0.01 to 0.1 | II (II = 10-100-fold selectivity) | 
COc1ncccc1-c1cccc(C2(c3ccc(OC(F)(F)F)cc3)N=C(N)N(C)C2=O)c1 (centres unmarked) [Example 52] | 0.11 to 1 | II (II = 10-100-fold selectivity) | 
COc1ccc(C2(c3ccc(F)c(-c4cccnc4F)c3)N=C(N)N(C)C2=O)cc1C(F)(F)F (centres unmarked) [Example 58] | 0.01 to 0.1 | II (II = 10-100-fold selectivity) | 
CN1C(=O)C(c2ccc(OC(F)(F)F)cc2)(c2ccc(F)c(-c3cccnc3F)c2)N=C1N (centres unmarked) [Example 74] | 0.01 to 0.1 | II (II = 10-100-fold selectivity) | 
CCOc1ccc(C2(c3cccc(-c4cnccc4F)c3)N=C(N)N(C)C2=O)cc1OCC (centres unmarked) [Example 81] | 0.01 to 0.1 | II (II = 10-100-fold selectivity) | 
COc1ccc(C2(c3ccc(C#N)c(-c4cccnc4)c3)N=C(N)N(C)C2=O)cc1C (centres unmarked) [Example 5, 4-[2-amino-4-(4-methoxy-3-methylphenyl)-1-methyl-5-oxo-4,5-dihydro-1H-imidazol-4-yl]-2-pyridin-3-ylbenzonitrile] |  |  | 0.11 to 1
NC1=NC(c2ccc(OC(F)(F)F)cc2)(c2ccc(F)c(-c3cccnc3F)c2)C(=O)N1CCF (centres unmarked) [Example 127] | 0.11 to 1 | I (I = >100-fold selectivity) | 
CN1C(=O)C(c2ccc(OC(F)(F)F)cc2)(c2cccc(-c3cnccc3F)c2)N=C1N (centres unmarked) [Example 82] | 0.01 to 0.1 | II (II = 10-100-fold selectivity) | 
COc1ccc(C2(c3ccc(F)c(-c4cncc(F)c4)c3)N=C(N)N(C)C2=O)cc1 (centres unmarked) [Example 60] | 0.01 to 0.1 | II (II = 10-100-fold selectivity) | 
COc1ccc(C2(c3ccc(F)c(-c4cccnc4F)c3)N=C(N)N(C)C2=O)cc1 (centres unmarked) [Example 62] | 0.01 to 0.1 | II (II = 10-100-fold selectivity) | 
COc1ccc(C2(c3ccc(F)c(-c4ccc(F)nc4)c3)N=C(N)N(C)C2=O)cc1C(F)(F)F (centres unmarked) [Example 57] | 0.01 to 0.1 | II (II = 10-100-fold selectivity) | 
CCN1C(=O)C(c2cccc(-c3cccnc3)c2)(c2ccc(OC)c(C)c2)N=C1N (centres unmarked) [Example 8] | 0.01 to 0.1 | II (II = 10-100-fold selectivity) | 
COc1ccc(C2(c3cccc(-c4cnccn4)c3)N=C(N)N(C)C2=O)cc1C (centres unmarked) [Example 9] | 0.01 to 0.1 | II (II = 10-100-fold selectivity) | 
CCOc1ccc(C2(c3cccc(-c4ccc(F)nc4)c3)N=C(N)N(C)C2=O)cc1OCC (centres unmarked) [Example 69] | 0.01 to 0.1 | III (III = <10-fold selectivity) | 
COc1ccc(C2(c3ccc(F)c(-c4cncc(Cl)c4)c3)N=C(N)N(C)C2=O)cc1 (centres unmarked) [Example 80] | 0.01 to 0.1 | III (III = <10-fold selectivity) | 
CCCOc1cc(C2(c3cccc(-c4cccnc4)c3)N=C(N)N(C)C2=O)ccc1OC (centres unmarked) [Example 16] | 0.01 to 0.1 | III (III = <10-fold selectivity) | 
COc1ccc(C2(c3cccc(-c4cccnc4OC)c3)N=C(N)N(C)C2=O)cc1C (centres unmarked) [Example 75] | 0.11 to 1 | II (II = 10-100-fold selectivity) | 
COc1ccc(C2(c3ccc(F)c(-c4cncnc4)c3)N=C(N)N(C)C2=O)cc1 (centres unmarked) [Example 63] | 0.01 to 0.1 | I (I = >100-fold selectivity) | 
CCOc1ccc(C2(c3cccc(-c4cccnc4F)c3)N=C(N)N(C)C2=O)cc1OCC (centres unmarked) [Example 70] | 0.01 to 0.1 | II (II = 10-100-fold selectivity) | 
COc1ccc(C2(c3cccc(-c4cccnc4)c3)N=C(N)N(C)C2=O)cc1F (centres unmarked) [Example 21] |  |  | 0.01 to 0.1
